This note sets out measurements from ChEMBL document CHEMBL5154907, “Discovery and Anti-Inflammatory Activity Evaluation of a Novel CDK8 Inhibitor through Upregulation of IL-10 for the Treatment of Inflammatory Bowel Disease In Vivo” (J Med Chem, 2022).

The inhibition is the share of the control response that was lost under treatment. By pIC50 is commonly meant the negative decadic logarithm of the IC50, by convention in mol/L.

Series [1] addresses CDK8/Cyclin C (Homo sapiens) (UniProt P49336+P24863). The series is described as follows: Inhibition of recombinant full length His tagged human CDK8/Cyclin C expressed in Baculovirus at 200 nM incubated for 60 mins in presence of ATP by ADP-Glo kinase assay. (In general: In ADP-Glo the light output rises with the ADP produced.)
Series [2] in a line: Stability of compound in human liver microsome assessed as intrinsic clearance by HPLC analysis. As to conditions: liver microsomes, read-out: CLH. It counts as ADME. (Microsomes from liver hold many membrane-bound enzymes, among them those of drug oxidation.)
Another series concerns BMDC. The series can be described thus: Anti-inflammatory activity against R848-stimulated mouse BMDC cells assessed as upregulation of IL-10 production at 5 uM treated for 24 hrs followed by R848 stimulation for 12 hrs by ELISA method (reference value: 100 %). It is filed as functional. To be noted: time 36 hrs. (An ELISA detects its analyte on a solid surface through an enzyme-linked reagent.)

A further series deals with CDK8/Cyclin C (Homo sapiens, UniProt P49336). The series is described as follows: Inhibition of recombinant full length His tagged human CDK8/Cyclin C expressed in Baculovirus incubated for 60 mins in presence of ATP by ADP-Glo kinase assay.
The nature of series [3]: Transcriptional activity of AP-1 in R848-stimulated mouse BMDC cells transfected with pAP1-luc assessed as ratio of AP-1 activity at 5 uM treated for 24 hrs followed by R848 stimulation for 4 hrs by luminescence based microplate reader analysis relative to control. It is filed as functional. As to conditions: time 28 hrs.

pIC50: −log10 of the molar value.

Sequence of CDK8/Cyclin C (P49336 whole entry): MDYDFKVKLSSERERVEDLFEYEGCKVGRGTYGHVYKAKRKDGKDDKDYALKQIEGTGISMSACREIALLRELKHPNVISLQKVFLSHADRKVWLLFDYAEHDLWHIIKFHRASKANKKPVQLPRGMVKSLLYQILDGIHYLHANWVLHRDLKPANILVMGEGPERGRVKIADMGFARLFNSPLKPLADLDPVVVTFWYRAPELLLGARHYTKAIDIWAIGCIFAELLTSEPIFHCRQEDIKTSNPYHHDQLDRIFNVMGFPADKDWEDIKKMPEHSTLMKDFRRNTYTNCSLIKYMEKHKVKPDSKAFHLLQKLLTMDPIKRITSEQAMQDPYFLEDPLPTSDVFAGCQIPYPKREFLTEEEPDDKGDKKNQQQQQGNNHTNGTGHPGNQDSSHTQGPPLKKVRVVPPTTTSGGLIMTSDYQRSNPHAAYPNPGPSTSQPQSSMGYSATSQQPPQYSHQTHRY
Sequence of CDK8/Cyclin C (P24863 whole entry, further chain): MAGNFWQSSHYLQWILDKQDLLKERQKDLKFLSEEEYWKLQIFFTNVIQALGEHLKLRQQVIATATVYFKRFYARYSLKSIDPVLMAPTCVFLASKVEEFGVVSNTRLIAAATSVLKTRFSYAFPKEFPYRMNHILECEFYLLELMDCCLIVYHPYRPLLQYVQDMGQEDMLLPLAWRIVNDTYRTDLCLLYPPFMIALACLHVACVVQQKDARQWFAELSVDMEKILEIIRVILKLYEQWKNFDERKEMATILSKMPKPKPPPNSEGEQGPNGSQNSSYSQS

`Cc1ccccc1NC(=O)c1cncc(-c2ccc(C(=O)N3CCNCC3)cc2)c1`: the inhibition in series [1] amounted to 81%. For the same compound, the microsomal CLint in series [2] is 13 µL/min/mg. Also, the Activity in the series on BMDC is recorded as 70%. Further, the negative logarithm of the IC50 (pIC50) on CDK8/Cyclin C was 7.15. Besides, the Ratio in series [3] stood at 1.5.
For `O=C(Nc1ccccc1)c1cc(-c2ccc(C(=O)N3CCNCC3)cc2)ccn1`, the inhibition in series [1] was 78%. Besides, the microsomal CLint in series [2] turned out to be 10.4 µL/min/mg. For the same compound, the Activity in the series with BMDC amounted to 72%. The pIC50 on CDK8/Cyclin C was 7.06. The Ratio in series [3] was 2.3.
Taken in the same sequence, the figures for `O=C(Nc1ccccc1)c1ccnc(-c2ccc(C(=O)N3CCNCC3)cc2)c1` were 65%, 10.9 µL/min/mg, 29%, 7.10 and 2.4.
Taken in the same sequence, the figures for `O=C(Nc1ccccc1)c1cc(O)cc(-c2ccc(C(=O)N3CCNCC3)cc2)c1` were 30%, 9.5 µL/min/mg, 82%, 6.28 and 1.3.
